Numbers after ± are expanded uncertainties.
Key:
[1] = 101 kPa, Liquid; for viscosity: Concentric cylinders viscometry; for mass density: Vibrating tube method
[2] = xn = mol fraction of the nth substance listed; conditions: 101 kPa, Liquid; for viscosity: Concentric cylinders viscometry; for mass density: Vibrating tube method

Row | Structure (SMILES) | viscosity ([1]; 303.15 K) | mass density ([1]; 303.15 K) | viscosity ([1]; 313.15 K) | mass density ([1]; 313.15 K) | viscosity ([1]; 323.15 K) | mass density ([1]; 323.15 K) | viscosity ([1]; 333.15 K) | mass density ([1]; 333.15 K) | viscosity ([1]; 343.15 K) | mass density ([1]; 343.15 K) | viscosity ([2]; 303.15 K, x2 = 0) | mass density ([2]; 303.15 K, x2 = 0) | viscosity ([2]; 313.15 K, x2 = 0) | mass density ([2]; 313.15 K, x2 = 0) | viscosity ([2]; 323.15 K, x2 = 0) | mass density ([2]; 323.15 K, x2 = 0) | viscosity ([2]; 333.15 K, x2 = 0) | mass density ([2]; 333.15 K, x2 = 0) | viscosity ([2]; 343.15 K, x2 = 0) | mass density ([2]; 343.15 K, x2 = 0) | also measured
1 | CCC(C)O (stereo not given) [butan-2-ol] | 2.51 ± 0.02 mPa·s | 799.3 ± 0.4 kg/m3 | 1.78 ± 0.02 mPa·s | 790.7 ± 0.4 kg/m3 | 1.31 ± 0.01 mPa·s | 781.7 ± 0.4 kg/m3 | 0.99 ± 0.01 mPa·s | 772.1 ± 0.4 kg/m3 | 0.78 ± 0.01 mPa·s | 762 ± 0.4 kg/m3 |  |  |  |  |  |  |  |  |  |  | 
2 | CCC(C)O (stereo not given) [butan-2-ol] + O=S1(=O)CCCC1 |  |  |  |  |  |  |  |  |  |  | 2.51 ± 0.02 mPa·s | 799.3 ± 0.4 kg/m3 | 1.78 ± 0.02 mPa·s | 790.7 ± 0.4 kg/m3 | 1.31 ± 0.01 mPa·s | 781.7 ± 0.4 kg/m3 | 0.99 ± 0.01 mPa·s | 772.1 ± 0.4 kg/m3 | 0.78 ± 0.01 mPa·s | 762 ± 0.4 kg/m3 | 
3 | OCCOCCO [diethylene glycol] | 22.5 ± 0.2 mPa·s | 1110 ± 0.5 kg/m3 | 14.9 ± 0.1 mPa·s | 1103 ± 0.5 kg/m3 | 10.4 ± 0.1 mPa·s | 1095.9 ± 0.5 kg/m3 | 7.6 ± 0.06 mPa·s | 1088.5 ± 0.5 kg/m3 | 5.75 ± 0.05 mPa·s | 1081.1 ± 0.5 kg/m3 |  |  |  |  |  |  |  |  |  |  | 
4 | OCCOCCO [diethylene glycol] + O=S1(=O)CCCC1 |  |  |  |  |  |  |  |  |  |  | 22.5 ± 0.2 mPa·s | 1110 ± 0.5 kg/m3 | 14.9 ± 0.1 mPa·s | 1103 ± 0.5 kg/m3 | 10.4 ± 0.1 mPa·s | 1095.9 ± 0.5 kg/m3 | 7.6 ± 0.06 mPa·s | 1088.5 ± 0.5 kg/m3 | 5.75 ± 0.05 mPa·s | 1081.1 ± 0.5 kg/m3 | 
5 | CC(C)O [propan-2-ol] | 1.78 ± 0.02 mPa·s | 777.5 ± 0.4 kg/m3 | 1.34 ± 0.01 mPa·s | 768.8 ± 0.4 kg/m3 | 1.03 ± 0.01 mPa·s | 759.7 ± 0.4 kg/m3 | 0.79 ± 0.01 mPa·s | 750 ± 0.4 kg/m3 | 0.64 ± 0.01 mPa·s | 739.5 ± 0.4 kg/m3 |  |  |  |  |  |  |  |  |  |  | 
6 | CC(C)O [propan-2-ol] + O=S1(=O)CCCC1 |  |  |  |  |  |  |  |  |  |  | 1.78 ± 0.02 mPa·s | 777.5 ± 0.4 kg/m3 | 1.34 ± 0.01 mPa·s | 768.8 ± 0.4 kg/m3 | 1.03 ± 0.01 mPa·s | 759.7 ± 0.4 kg/m3 | 0.79 ± 0.01 mPa·s | 750 ± 0.4 kg/m3 | 0.64 ± 0.01 mPa·s | 739.5 ± 0.4 kg/m3 | 
7 | O=S1(=O)CCCC1 [sulfolane] | 10.4 ± 0.1 mPa·s | 1262.9 ± 0.6 kg/m3 | 8.07 ± 0.07 mPa·s | 1254.1 ± 0.6 kg/m3 | 6.45 ± 0.06 mPa·s | 1245.2 ± 0.6 kg/m3 | 5.22 ± 0.05 mPa·s | 1236.6 ± 0.6 kg/m3 | 4.32 ± 0.04 mPa·s | 1228.1 ± 0.6 kg/m3 |  |  |  |  |  |  |  |  |  |  | 
8 | O=S1(=O)CCCC1 [sulfolane] + OCCOCCOCCO |  |  |  |  |  |  |  |  |  |  |  |  |  |  |  |  |  |  |  |  | viscosity ([2]; 303.15 K, x1 = 1): 10.4 ± 0.1 mPa·s; mass density ([2]; 303.15 K, x1 = 1): 1262.9 ± 0.6 kg/m3; viscosity ([2]; 313.15 K, x1 = 1): 8.07 ± 0.07 mPa·s; mass density ([2]; 313.15 K, x1 = 1): 1254.1 ± 0.6 kg/m3; viscosity ([2]; 323.15 K, x1 = 1): 6.45 ± 0.06 mPa·s; mass density ([2]; 323.15 K, x1 = 1): 1245.2 ± 0.6 kg/m3; viscosity ([2]; 333.15 K, x1 = 1): 5.22 ± 0.05 mPa·s; mass density ([2]; 333.15 K, x1 = 1): 1236.6 ± 0.6 kg/m3; viscosity ([2]; 343.15 K, x1 = 1): 4.32 ± 0.04 mPa·s; mass density ([2]; 343.15 K, x1 = 1): 1228.1 ± 0.6 kg/m3
9 | OCCOCCOCCO [triethylene glycol] | 29.5 ± 0.3 mPa·s | 1116.5 ± 0.5 kg/m3 | 19.3 ± 0.2 mPa·s | 1108.9 ± 0.5 kg/m3 | 13.3 ± 0.1 mPa·s | 1101.1 ± 0.5 kg/m3 | 9.58 ± 0.08 mPa·s | 1093.4 ± 0.5 kg/m3 | 7.16 ± 0.06 mPa·s | 1085.5 ± 0.5 kg/m3 |  |  |  |  |  |  |  |  |  |  | 

From the NIST ThermoML archive (doi:10.1021/je500153g)
